Legend:
[1] = molecular target: T1, PIM1 (Homo sapiens, UniProt P11309); assay: Pim-1 kinase enzymatic assay (Caliper LC3000, FAM-Pimtide substrate); assay type: biochemical; conditions: 20 pM PIM1, 10 μM ATP, 90 minutes; read-out: PIM1 LC3K (Ki)
T1 construct: made in house

[2] = molecular target: T2, PIM2 (Homo sapiens, UniProt Q9P1W9); assay: Pim-2 kinase enzymatic assay (Caliper LC3000, FAM-Pimtide substrate); assay type: biochemical; conditions: 50 pM PIM2, 10 μM ATP, 90 minutes; read-out: PIM2 LC3K (Ki)
T2 construct: made in house
T2 sequence (Q9P1W9 whole entry): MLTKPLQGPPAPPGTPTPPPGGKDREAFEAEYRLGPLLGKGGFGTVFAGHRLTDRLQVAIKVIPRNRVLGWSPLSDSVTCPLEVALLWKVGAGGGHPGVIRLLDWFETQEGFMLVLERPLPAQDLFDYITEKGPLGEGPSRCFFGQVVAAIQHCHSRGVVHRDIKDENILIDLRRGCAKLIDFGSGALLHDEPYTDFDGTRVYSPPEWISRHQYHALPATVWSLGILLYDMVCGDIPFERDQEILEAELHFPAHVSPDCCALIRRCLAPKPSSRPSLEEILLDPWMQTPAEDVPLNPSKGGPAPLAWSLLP

[3] = molecular target: T3, PIM3 (Homo sapiens, UniProt Q86V86); assay: Pim-3 kinase enzymatic assay (Caliper LC3000, FAM-Pimtide substrate); assay type: biochemical; conditions: 55 pM PIM3, 10 μM ATP, 90 minutes; read-out: PIM3 LC3K (Ki)
T3 construct: made in house

[4] = molecular target: BaF3 PIM1 cells (Homo sapiens, UniProt P11309); assay: BaF3 PIM1 cell proliferation (Cell Titer Glo); assay type: cell-based; conditions: incubated overnight; read-out: Prolif BaF3_PIM1 (IC50)
Sequence of BaF3 PIM1 cells (P11309 whole entry, change not shown): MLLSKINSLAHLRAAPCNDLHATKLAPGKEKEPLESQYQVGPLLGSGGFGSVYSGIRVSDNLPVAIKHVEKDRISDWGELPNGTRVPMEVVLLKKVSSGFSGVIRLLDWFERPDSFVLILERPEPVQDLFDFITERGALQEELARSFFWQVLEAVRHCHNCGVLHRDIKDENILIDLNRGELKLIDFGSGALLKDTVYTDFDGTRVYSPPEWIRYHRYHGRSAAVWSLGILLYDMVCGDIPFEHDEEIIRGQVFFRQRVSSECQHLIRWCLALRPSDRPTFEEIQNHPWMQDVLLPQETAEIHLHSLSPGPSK

[5] = molecular target: BaF3 PIM2 cells (Homo sapiens, UniProt Q9P1W9); assay: BaF3 PIM2 cell proliferation (Cell Titer Glo); assay type: cell-based; conditions: incubated overnight; read-out: Prolif BaF3_PIM2 (IC50)
Sequence of BaF3 PIM2 cells (Q9P1W9 whole entry, change not shown): as the sequence (Q9P1W9 whole entry) above
Outline: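 BaF3 cells stably transfected with PIM2 were cultured in RPMI with 10% FBS, 2 mM L-Glutamine and 250 μg/mL G418, then plated at 5 k/well in 45 μL/well of a 384-well plate. Test compound was added at 5 μL/well, cells incubated overnight, and viability measured by luminescence after 30 minutes with Cell Titer Glo (50 μL/well).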

[6] = tested on: MM1.S cells; assay: MM1.S cell proliferation, 72 hours (Cell Titer Glo); assay type: cell-based; conditions: Homo sapiens, 72 hours, read-out: Prolif MM1S ATP (EC50)
Outline: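 BaF3 parental cells (2 k/well, with 2 ng/mL mIL-3) were treated overnight, and MM1.S cells (10 k/well) were treated for 72 h at 37 °C. Viability was read by CellTiter-Glo luminescence. IC50/EC50 values were calculated from the luminescence data.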

T1 sequence (P11309 whole entry): as the sequence (P11309 whole entry, change not shown) above

Structure (SMILES)	Ki [1] [nM]	Ki [2] [nM]	Ki [3] [nM]	GI50 [4] [nM]	GI50 [5] [nM]	EC50 [6] [nM]
Cc1cccc(C)c1-c1nc(C(=O)Nc2cnccc2N2CCC[C@H](N)C2)c(N)s1 [Example 54, (S)-5-amino-N-(4-(3-aminopiperidin-1-yl)pyridin-3-yl)-2-(2,6-dimethylphenyl)thiazole-4-carboxamide]	26.9	72.3	23.1	7800	> 20000	15700
Nc1sc(-c2c(Cl)cccc2Cl)nc1C(=O)Nc1cnccc1N1CCC[C@H](N)C1 [Example 58, (S)-5-amino-N-(4-(3-aminopiperidin-1-yl)pyridin-3-yl)-2-(2,6-dichlorophenyl)thiazole-4-carboxamide]	0.89	1.85	0.554	232	6500	3100
C=C(C)c1nc(C(=O)Nc2cnccc2N2CCC[C@H](N)C2)c(N)s1 [Example 59, (S)-5-amino-N-(4-(3-aminopiperidin-1-yl)pyridin-3-yl)-2-(prop-1-en-2-yl)thiazole-4-carboxamide]	18.2	355	48	> 20000	> 20000	> 20000
Nc1sc(C2CCCC2)nc1C(=O)Nc1cnccc1N1CCC[C@H](N)C1 [Example 60, (S)-5-amino-N-(4-(3-aminopiperidin-1-yl)pyridin-3-yl)-2-cyclopentylthiazole-4-carboxamide]	1.07	1.16	0.279	465	17600	1400
Nc1sc(-c2ccc3nccn3c2)nc1C(=O)Nc1cnccc1N1CCC[C@H](N)C1 [Example 61, (S)-5-amino-N-(4-(3-aminopiperidin-1-yl)pyridin-3-yl)-2-(imidazo[1,2-a]pyridin-6-yl)thiazole-4-carboxamide]	0.642	18.2	1.01	7100	> 20000	10400
Nc1sc(-c2ccccc2F)nc1C(=O)Nc1cnccc1N1C[C@@H](N)C[C@@H](F)C1 [Example 62, 5-amino-N-(4-((3S,5R)-3-amino-5-fluoropiperidin-1-yl)pyridin-3-yl)-2-(2-fluorophenyl)thiazole-4-carboxamide]	1.34	8.87	0.326	6000	10400	364

Molecules with a lower Ki [1], results first:

Ki [1] [nM]	Ki [2] [nM]	Ki [3] [nM]	GI50 [4] [nM]	GI50 [5] [nM]	EC50 [6] [nM]	Structure (SMILES)
0.0269	0.495	0.061	2200	> 20000	1300	Nc1sc(-c2c(F)cccc2F)nc1C(=O)Nc1cnccc1N1CCC[C@H](O)C1 [Example 52, (S)-5-amino-2-(2,6-difluorophenyl)-N-(4-(3-hydroxypiperidin-1-yl)pyridin-3-yl)thiazole-4-carboxamide]
0.208	0.839	0.146	273	7600	660	CC(C)NC(=O)c1ccc(F)c(-c2nc(C(=O)Nc3cnccc3N3CCC[C@@H](N)C3)c(N)s2)c1 [Example 53, (R)-5-amino-N-(4-(3-aminopiperidin-1-yl)pyridin-3-yl)-2-(2-fluoro-5-(isopropylcarbamoyl)phenyl)thiazole-4-carboxamide]
0.115	0.666	0.08	1500	> 20000	953	Nc1sc(-c2cn[nH]c2)nc1C(=O)Nc1cnccc1N1CCC[C@H](N)C1 [Example 56, (S)-5-amino-N-(4-(3-aminopiperidin-1-yl)pyridin-3-yl)-2-(1H-pyrazol-4-yl)thiazole-4-carboxamide]
0.11	2.88	0.229	494	> 20000	5100	Nc1sc(-c2cnc3ccccn23)nc1C(=O)Nc1cnccc1N1CCC[C@H](N)C1 [Example 57, (S)-5-amino-N-(4-(3-aminopiperidin-1-yl)pyridin-3-yl)-2-(imidazo[1,2-a]pyridin-3-yl)thiazole-4-carboxamide]

From US8435976B2, “4-substituted pyridin-3-yl-carboxamide compounds and methods of use” (F. Hoffmann-La Roche, priority 2009, dated 2013)
